Test results from PMC6057649, “Development of NanoLuc-PEST expressing Leishmania mexicana as a new drug discovery tool for axenic- and intramacrophage-based assays” (PLoS Neglected Tropical Diseases, 2018).

System: NanoLuc-PEST expressing L. mexicana axenic amastigotes
Experiment: microbe, parasite or virus in culture
Format: cell-based
Details: for Relative Bioluminescence (%): 72 hours, relative to DMSO only control, n = 4; for EC50: hit compounds from the axenic amastigote screen, S3 Table, read-out: EC50, Axenic Amastigotes

| Compound | Relative Bioluminescence (%) (2 µM compound) | Relative Bioluminescence (%) (10 µM compound) | EC50 [nM] |
| --- | --- | --- | --- |
| C[C@H](C(N)=O)N1CCCC[C@H]1c1ccc(OCc2cccc(F)c2)cc1 [MMV676269] | 85.78 | 76.17 |  |
| C[C@H](C(N)=O)N1CCCC[C@@H]1c1ccc(OCc2cccc(F)c2)cc1 [MMV676270] | 41.26 | 18.00 |  |
| Cc1c[nH]c(CCNC(=O)c2cc(-c3ccc(Cl)cc3)cs2)n1 [MMV676350] | 84.72 | 104.94 |  |
| Nc1ncc(Br)cc1-c1nc2cc(Cl)cnc2[nH]1 [MMV676358] | 93.00 | 64.12 |  |
| Brc1c(-c2ccc3c(c2)OCO3)nc2ncccn12 [MMV676377] | 78.14 | 74.59 |  |
| COc1cccc(OCC(=O)c2ccc(Br)cc2)c1 [MMV676379] | 81.42 | 79.42 |  |
| CC(=O)Nc1ccc(NC(=O)c2cc(-c3cc(Cl)ccc3O)n[nH]2)cc1 [MMV676380] | 84.54 | 97.79 |  |
| Cn1ncc2c(N3CCOCC3)nc(NCCc3c[nH]c4ccccc34)nc21 [MMV676382] | 73.92 | 64.75 |  |
| CCC(Sc1nc2ccccc2o1)C(=O)Nc1nccs1 (stereo not drawn) [MMV676383] | 136.33 | 127.92 |  |
| N#Cc1nc(-c2ccccc2F)oc1NCCc1ccccc1 [MMV676384] | 51.03 | 59.90 |  |
| Cc1cccc(Cn2ccc(NC(=O)c3ccc4c(c3)OCO4)n2)c1 [MMV676386] | 127.03 | 120.21 |  |
| COc1cccc(-n2nnnc2S(=O)(=O)Cc2ccccc2)c1 [MMV676388] | 0.56 | 0.16 | 730 |
| O=C(c1n[nH]c2c1CCCC2)N1CCN(Cc2ccc3c(c2)OCO3)CC1 [MMV676389] | 67.21 | 71.87 |  |
| O=C(Nc1cccnc1)c1c(O)c2cccc3c2n(c1=O)CC3 [MMV676395] | 63.89 | 0.76 |  |
| CCS(=O)(=O)N(Cc1ccco1)Cc1cc2ccc(C)cc2[nH]c1=O [MMV676398] | 115.47 | 84.49 |  |
| c1coc(CNc2nc(N3CCCCC3)nc3ccccc23)c1 [MMV676401] | 91.23 | 75.18 |  |
| CC(C)n1ncc2c(C(=O)NCC(c3cccs3)N3CCOCC3)cc(-c3ccccc3)nc21 (stereo not drawn) [MMV676406] | 54.35 | 35.79 |  |
| O=C(COc1cccc(F)c1)Nc1nc(-c2ccccn2)cs1 [MMV676409] | 37.25 | 12.84 |  |
| CC(Oc1ccccc1)C(=O)Nc1nc(-c2ccccn2)cs1 (stereo not drawn) [MMV676411] | 48.75 | -0.81 |  |
| N#Cc1nc(-c2ccccc2)oc1S(=O)(=O)c1ccc(Cl)cc1 [MMV676412] | 0.46 | -0.09 | 260 |
| Cc1ccc(NC(=O)CC2COc3ccccc3O2)cc1Cl (stereo not drawn) [MMV676431] | 104.86 | 65.31 |  |
| Cc1ccc2nc(Cl)c(CNCc3cccs3)cc2c1 [MMV676439] | 83.45 | 95.86 |  |
| CC(C)c1ncc(-c2ccncc2)c(C2CCC(CNC(=O)c3cccnc3)CC2)n1 (stereo not drawn) [MMV676442] | 118.75 | 113.29 |  |
| O=C(NC1CCCCC1)N1CCN(Cc2ccc3c(c2)OCO3)CC1 [MMV676444] | 89.21 | 81.76 |  |
| CCCn1c(CNc2ccccc2O)nc2ccccc21 [MMV676445] | 79.21 | 77.96 |  |
| CCc1nc2ccccc2n1CC(O)COc1cc(C)ccc1Cl (stereo not drawn) [MMV676449] | 92.26 | 88.05 |  |
| CCOC(=O)c1cc(-c2csc(Nc3c(C)cc(C)cc3C)n2)on1 [MMV676461] | 79.84 | 54.88 |  |

| Compound | Relative Bioluminescence (%) (2 µM compound) | Relative Bioluminescence (%) (10 µM compound) | EC50 [nM] |
| --- | --- | --- | --- |
| NC(CC(=O)c1ccc(Cl)cc1Cl)C(Cl)(Cl)Cl (stereo not drawn) [MMV676468] | 106.85 | 84.33 |  |
| CCOc1ccc(OCC(=O)Nc2cc(C)cc(C)c2)cc1 [MMV676470] | 87.35 | 79.72 |  |
| COc1cccc(OC)c1C(=O)Nc1ccc(Cl)c(-c2nc3ccccc3s2)c1 [MMV676472] | 106.46 | 93.04 |  |
| COc1ccccc1OCCCCn1c(C2CC2)nc2ccccc21 [MMV676474] | 84.28 | 88.48 |  |
| Cc1cc(C)cc(COc2ccc3c(C)c(CCC(=O)O)c(=O)oc3c2C)c1 [MMV676476] | 1.36 | -0.27 | 580 |
| O=C(C1CCN(c2nnc(-n3cccc3)s2)CC1)N1CCC(Cc2ccccc2)CC1 [MMV676478] | 93.56 | 56.18 |  |
| COC(=O)c1c(NC(=O)c2cc3ccccc3oc2=O)sc2c1CCN(Cc1ccccc1)C2 [MMV676480] | 96.73 | 61.83 |  |
| O=C(Nc1n[nH]c(=S)s1)c1cc(Br)ccc1Cl [MMV676492] | 60.28 | 23.83 |  |
| O=C(Nc1nnc(-c2ccc(Cl)s2)o1)c1ccc(Cl)s1 [MMV676501] | -0.04 | -0.69 | 300 |
| Cc1ccc2oc(-c3cc(NC(=O)Cc4ccccc4)ccc3Cl)nc2c1 [MMV676509] | 92.05 | 59.65 |  |
| O=C(Nc1nc(-c2ccccn2)cs1)c1cncn1-c1ccccc1 [MMV676512] | 15.66 | -0.58 |  |
| O=C(c1cc2ccccc2o1)N1CCN(Cc2ccc3c(c2)OCO3)CC1 [MMV676520] | 56.86 | 68.82 |  |
| Nc1cccnc1Nc1ccc(Cl)cc1 [MMV676524] | 60.00 | 65.52 |  |
| COc1ccc(-c2cc(NC(=O)c3ccc(F)cc3Cl)ccc2OC)cc1 [MMV676526] | 103.78 | 46.48 |  |
| Cc1cccc(NC(=O)c2cc(S(=O)(=O)N(C)c3ccc(F)cc3)ccc2Cl)n1 [MMV676528] | 77.13 | 57.74 |  |
| COCC(C)NC(=O)CSc1ncnc2sc(-c3ccccc3)cc12 (stereo not drawn) [MMV676536] | 84.93 | 103.25 |  |
| O=C(NCCc1c[nH]c2ccccc12)c1cc2ccccc2oc1=O [MMV676539] | 54.78 | 62.48 |  |
| COc1ccc(Nc2ccccc2NC(=O)c2ccc(=O)[nH]c2)cc1 [MMV676554] | 97.83 | 103.74 |  |
| Cc1nnc(NCc2cccc(Cl)c2)c2ccccc12 [MMV676555] | 104.08 | 90.53 |  |
| CC1=NN(c2nc3ccccc3s2)C(=O)C1Cc1cccc2ccccc12 (stereo not drawn) [MMV676558] | -0.86 | -0.77 | 470 |
| COc1ccc(-c2nc(-c3cccc(NC(=O)Cc4ccc(F)cc4)c3)no2)cc1OC [MMV676571] | 102.29 | 85.94 |  |
| O=C(NC1=NCCS1)c1sc2cc(F)ccc2c1Cl [MMV676584] | 83.30 | 89.36 |  |
| Nc1c2c(nc3sc4c(c13)CCCC4)CCCC2 [MMV676588] | 70.58 | 69.13 |  |
| O=C(CCC1CCCCC1)Nc1cccc(-c2nnc(-c3ccco3)o2)c1 [MMV676589] | 54.08 | 15.64 |  |
| CCCn1nnc(NC(=O)COc2ccc(C3CCCCC3)cc2)n1 [MMV676597] | 85.91 | 73.07 |  |
| CC(C)(C)n1nc(Cc2cccc3ccccc23)c2c(N)ncnc21 [MMV676599] | 80.19 | 31.83 |  |
